Results: patent US7667031B2, “Nucleic acid base pair” (Japan Science and Technology Agency, priority 1999, dated 2010)
Several values for one entry are separate records, joined by “and”; a condition that tells them apart may be missing. Equal entries are not always repeated.

Columns and labels:
T7 RNA polymerase [1] = molecular target: T1, T7 RNA polymerase (Escherichia phage T7, UniProt P00573); test: Transcription by T7 RNA polymerase, gel electrophoresis of generated RNA; assay type: biochemical; conditions: for incorporation into the complementary strand of A in transcription (FIG. 10): template 1 (N=A); for incorporation to X in transcription (FIG. 10): template 3 (N=X); for incorporation in transcription opposite G (FIG. 10): template 2 (N=G)
Protocol: Similarly, a transcription reaction by RNA polymerase using DNA containing X as template was examined. Using template 1-3, promoter region on this strand was duplicated, and the transcription reaction was examined using T7 RNA polymerase by adding [α-^32P] ATP.
Template DNA 1 μM, in which promoter region has duplicated strands, and T7 RNA polymerase 2.5 units were added to a solution containing 2 mM rNTP, [α-^32P] […] The product was analyzed.

T7 RNA polymerase [2] = molecular target: T1, T7 RNA polymerase; test: Transcription by T7 RNA polymerase in presence of rNTP, RNase T2 digestion, 2-dimension TLC (templates 1 and 3); assay type: biochemical; conditions: for Template 1 (N = A) Measured Value / Template 3 (N = X) Measured Value: rATP, rGTP, rCTP, UTP 2 mM, rYTP 1 mM, nucleotide composition by 2-dimension TLC
Protocol: Transcription reaction in the presence of rNTP was conducted. […] ATP under the condition of rATP 2 mM, rGTP 2 mM, rCTP 2 mM, UTP 2 mM, and rYTP 1 mM, then generated full length of RNA was digested completely by RNase T2, nucleotide labeled at 3′-terminal was analyzed by 2-dimension TLC. Outline of this experiment is shown as follows.
Reaction was performed as same as in example 8. The generated RNA was isolated by gel electrophoresis. RNA was digested by 0.75 units RNase T2. Each nucleotide was separated using 2-dimension TLC and each ratio was calculated.

Klenow fragment (exo+) = molecular target: T2, Klenow fragment (exo+) (Escherichia coli, UniProt P00582); test: Single nucleotide insertion reaction using Klenow fragment (exo+); assay type: biochemical, E. coli; conditions: 3 minutes; for rate of incorporation on dx2: template N = X2, 37° C.
T2 construct: Klenow fragment, which is deleted 5′-exonuclease from DNA polymerase I; purchased TAKARA
Protocol: Using Klenow fragment (exo^+), incorporation of dYTP on dx2 in the template (refer to example 10).
In the template, a position indicated by N was bound with base X or base X2 (for experimental) or base A (for control), and incorporation experiments of various bases were conducted. Results are shown in FIG. 12, in which lanes 1 and 2 indicate control experiments for incorporation of cytosine (C) and thymine (T) on adenine (A).
A solution containing [5′-^32P] labeled primer DNA (20-mer, […]), template DNA (35-mer, […]) and 2× Klenow fragment buffer (TAKARA) were annealed at 95° C. for 3 minutes, 40° C. for 3 minutes and 4° C. for 7 minutes. A solution of equimolar amount of 40 mM dNTP and Klenow fragment (exo^+) (2 unit/ml, For Sequencing, TAKARA) were added thereto and incubated at 37° C. for 3 minutes. […] Products were analyzed by using Phosphoroimager plate.

Klenow fragment [3] = molecular target: T3, Klenow fragment (Escherichia coli, UniProt P00582); test: Primer extension reaction by Klenow fragment; assay type: biochemical, E. coli; set-up: Klenow fragment, which is deleted 5′-exonuclease from DNA polymerase I; purchased TAKARA; conditions: 17° C.; for incorporation to the complementary strand X (primer extension, FIG. 6): template 3 1 μM
Description: In order to examine formation of selective novel nucleic acid base pair by utilizing steric hindrance in the base pair X-Y, primer extension method of DNA and transcriptional reaction synthesizing RNA from DNA were applied. The primer extension method includes annealing template DNA oligomer with a primer oligomer, and adding DNA polymerase and 2′-deoxynucleotide-5′-triphosphate (dNTP) to extend complementary sequence of the template at 3′-terminal of the primer. Klenow fragment, which is deleted 5′-exonuclease from DNA polymerase I, one of DNA polymerase originated from E. coli, and T7 RNA polymerase, RNA polymerase originated from T7 phage, were herein used. Both enzymes are commonly used at present.
5′-terminal of the primer was labeled with ^32P using T4 polynucleotide kinase and […]. Primer labeled with ^32P (0.5 μM) and template 1 and 3 (1 μM) and various dNTP (150 μM), wherein N means base, were used for primer extension by Klenow fragment (0.2 unit/μl) at 17° C. for 30 minutes.
The thus obtained product was electrophoresed using 20% polyacrylamide 7M urea gel and analyzed by using imaging plate (Phosphoroimager analysis). In FIG. 6, left five, i.e. AG, AGC, AGT, AGY and AGCT, indicates cases using template 1, and right five indicates cases using template 3.
In order to search effect of incorporation of Y, C and T into the complementary strand of X, when two X are presented on the template, ^32P labeled primer 3 at 5′-terminal and template 4, 5, 6, 7, 8 and 9 were used for primer extension method.
5′-^32P labeled primer, template and 10× Klenow fragment buffer (TAKARA) 1 μl were added to the 0.5 ml tube, adjusted total volume to 7 μl, and annealed at 95° C. for 3 minutes, at 40° C. for 3 minutes and at 4° C. for 7 minutes. dNTP 1 μl, Klenow fragment (1 unit/ml, For Sequencing, TAKARA) 2 μl were added, adjusted to total volume to 10 μl and incubated for the fixed time at 17° C. The reaction was terminated by adding 10 M urea BPB dye 5 μl, heated at 75° C. for 5 minutes, and electrophoresed with 20% polyacrylamide gel with 7M urea gel electrophoresis. The result was analyzed using imaging plates (Phosphoroimager analysis). Single nucleotide insertion reaction is shown in FIG. 7 and primer extension reaction is shown in FIG. 6 and FIG. 9, respectively.

Klenow fragment [4] = molecular target: T3, Klenow fragment; test: Single nucleotide insertion reaction by Klenow fragment; assay type: biochemical, E. coli; set-up: Klenow fragment, which is deleted 5′-exonuclease from DNA polymerase I; purchased TAKARA; conditions: primer 2 1 μM, only one dNTP 159 μM, 17° C., 30 minutes; for incorporated into complementary strand of X: template 3 2 μM
Protocol: For quantitative analysis of the incorporation, same experiments were conducted by adding only DNTP (159 μM) using primer 2 (1 μM) labeled with p32 at 5′-terminal and template 1, 2 and 3 (2 μM).
The result was analyzed using imaging plates (Phosphoroimager analysis). Single nucleotide insertion reaction is shown in FIG. 7 and primer extension reaction is shown in FIG. 6 and FIG. 9, respectively.

Klenow fragment [5] = molecular target: T3, Klenow fragment; conditions: 17° C.
Protocol: Primer 2 without labeling and template 2 were annealed, and [α-^32P] TTP and various amounts of dYTP were added thereto to find out ratio of inhibition of incorporation of [α-^32P] TTP into X by dYTP was investigated. […] As a result, when dYTP was added almost equivalent level of [α-^32P] TTP, incorporation of [α-^32P]
Primer, template and 10× Klenow fragment buffer (TAKARA) 1 μl were added to 0.5 ml tube, and total volume was adjusted to 7 μl, and annealed at 95° C. for 3 minutes, at 40° C. for 3 minutes and at 4° C. for 7 minutes. [α-^32P] TTP or [α-^32P] dCTP and dYTP were added to final concentration for each level, and Klenow fragment (1 unit/ml, For Sequencing, TAKARA) 2 μl was added, adjusted to total volume to 10 μl and incubated for the fixed time at 17° C. The reaction was terminated by adding 10 M urea BPB dye 5 μl kept at 75° C. for 5 minutes, and electrophoresed with 20% polyacrylamide gel with 7M urea gel electrophoresis. The result was analyzed using imaging plates (Phosphoroimager analysis).

[6] = primer 1 0.5 μM, dNTP 150 μM, 30 minutes

T2 sequence (P00582 324-928): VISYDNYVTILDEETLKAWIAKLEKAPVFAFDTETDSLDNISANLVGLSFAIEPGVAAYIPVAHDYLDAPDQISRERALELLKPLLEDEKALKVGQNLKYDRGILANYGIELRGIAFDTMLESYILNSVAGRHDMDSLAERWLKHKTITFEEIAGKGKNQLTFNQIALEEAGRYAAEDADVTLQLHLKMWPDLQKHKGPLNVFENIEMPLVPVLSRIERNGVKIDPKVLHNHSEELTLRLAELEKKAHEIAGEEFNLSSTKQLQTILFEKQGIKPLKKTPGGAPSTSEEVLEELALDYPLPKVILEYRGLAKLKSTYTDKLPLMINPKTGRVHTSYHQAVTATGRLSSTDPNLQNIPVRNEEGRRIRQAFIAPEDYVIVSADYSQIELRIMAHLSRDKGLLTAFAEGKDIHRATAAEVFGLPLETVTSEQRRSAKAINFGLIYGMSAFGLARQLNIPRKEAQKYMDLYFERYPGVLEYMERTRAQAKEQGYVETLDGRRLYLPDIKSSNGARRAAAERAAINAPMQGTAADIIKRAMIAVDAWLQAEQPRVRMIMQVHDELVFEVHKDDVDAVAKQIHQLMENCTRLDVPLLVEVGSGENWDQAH
T3 sequence (P00582 324-928): as above
T1 sequence (P00573 whole entry): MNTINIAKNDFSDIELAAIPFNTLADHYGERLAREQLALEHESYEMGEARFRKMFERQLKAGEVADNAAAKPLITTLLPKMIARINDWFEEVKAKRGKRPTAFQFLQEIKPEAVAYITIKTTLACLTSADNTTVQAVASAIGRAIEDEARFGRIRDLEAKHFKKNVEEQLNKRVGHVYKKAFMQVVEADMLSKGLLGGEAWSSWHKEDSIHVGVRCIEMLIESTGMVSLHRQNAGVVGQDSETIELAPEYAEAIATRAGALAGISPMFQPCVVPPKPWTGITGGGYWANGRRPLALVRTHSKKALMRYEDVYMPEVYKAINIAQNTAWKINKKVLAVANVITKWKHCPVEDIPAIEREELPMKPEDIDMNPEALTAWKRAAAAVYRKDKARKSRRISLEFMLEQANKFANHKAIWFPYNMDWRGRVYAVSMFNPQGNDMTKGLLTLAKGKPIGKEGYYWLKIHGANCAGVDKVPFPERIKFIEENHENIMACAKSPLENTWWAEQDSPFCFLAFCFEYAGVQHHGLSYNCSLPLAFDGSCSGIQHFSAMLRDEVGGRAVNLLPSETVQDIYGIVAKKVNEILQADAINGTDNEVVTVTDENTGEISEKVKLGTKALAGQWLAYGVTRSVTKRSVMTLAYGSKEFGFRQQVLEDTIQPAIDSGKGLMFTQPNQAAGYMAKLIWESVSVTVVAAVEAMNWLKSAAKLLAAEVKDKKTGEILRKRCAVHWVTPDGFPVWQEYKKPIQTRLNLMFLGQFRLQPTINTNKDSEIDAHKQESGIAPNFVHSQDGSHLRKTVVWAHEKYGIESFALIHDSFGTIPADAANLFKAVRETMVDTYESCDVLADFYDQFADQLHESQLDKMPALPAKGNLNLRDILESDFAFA

SMILES: O=c1cc[nH]c(=O)[nH]1 [U]
- incorporation into the complementary strand of A in transcription (FIG. 10) (T7 RNA polymerase [1]): incorporated
- incorporation to X in transcription (FIG. 10) (T7 RNA polymerase [1]): Trace amount
- incorporation in transcription reaction in the presence of rNTP (T7 RNA polymerase [2]; template 3 (N=X)): trace amount

SMILES: Nc1ncnc2c1ncn2[C@@H]1O[C@H](CO)[C@@H](OP(=O)(O)O)[C@H]1O [Ap]
- Template 1 (N = A) Measured Value (T7 RNA polymerase [2]): 0.92
- Template 3 (N = X) Measured Value (T7 RNA polymerase [2]): 1.05

SMILES: Nc1ccn([C@H]2C[C@H](O)[C@@H](COP(=O)(O)OP(=O)(O)OP(=O)(O)O)O2)c(=O)n1 [dCTP]
- rate of incorporation on dx2 (Klenow fragment (exo+)): 22%

SMILES: Nc1nc2c(ncn2[C@@H]2O[C@H](CO)[C@@H](OP(=O)(O)O)[C@H]2O)c(=O)[nH]1 [Gp]
- Template 1 (N = A) Measured Value (T7 RNA polymerase [2]): 4
- Template 3 (N = X) Measured Value (T7 RNA polymerase [2]): 4

SMILES: Nc1ccn([C@@H]2O[C@H](CO)[C@@H](OP(=O)(O)O)[C@H]2O)c(=O)n1 [Cp]
- Template 1 (N = A) Measured Value (T7 RNA polymerase [2]): 0.78
- Template 3 (N = X) Measured Value (T7 RNA polymerase [2]): 0.94

SMILES: Cc1c[nH]c(=O)[nH]c1=O [T, thymine]
- incorporation to the complementary strand X (primer extension, FIG. 6) (Klenow fragment [3]; [6]): incorporated
- incorporated into complementary strand of X (Klenow fragment [4]): 13%

SMILES: O=c1cccc[nH]1 [Y, pyridine-2-one]
- incorporation into the complementary strand of A in transcription (FIG. 10) (T7 RNA polymerase [1]): incorporated
- incorporation in transcription opposite G (FIG. 10) (T7 RNA polymerase [1]): almost no production
- incorporation to X in transcription (FIG. 10) (T7 RNA polymerase [1]): selective incorporation
- incorporation in transcription reaction in the presence of rNTP (T7 RNA polymerase [2]; template 1 (N=A)): no incorporation
- incorporation in transcription reaction in the presence of rNTP (T7 RNA polymerase [2]; template 3 (N=X)): almost selectively incorporated
- incorporation into the complementary strand of the second X in the two X (Klenow fragment [3]; another base between two X on the template, primer 3, dNTP 150 μM, 60 minutes (FIG. 9)): only Y was incorporated
- incorporation into complementary strands (primer extension, FIG. 6) (Klenow fragment [3]; primer 1 0.5 μM, template 1 and 3 1 μM, dNTP 150 μM, 30 minutes): incorporated into complementary strands of A, G and X
- incorporated into complementary strand of A (Klenow fragment [4]; template 1 2 μM): 78%
- incorporated into complementary strand of G (Klenow fragment [4]; template 2 2 μM): 48%
- incorporated into complementary strand of X (Klenow fragment [4]): 42% and 41%

SMILES: O=c1[nH]cccc1[C@H]1C[C@H](O)[C@@H](COP(=O)(O)OP(=O)(O)OP(=O)(O)O)O1 [dYTP, 3-(2′-deoxy-5′-O-triphosphoryl-β-D-ribofuranosyl) pyridine-2-one]
- rate of incorporation on dx2 (Klenow fragment (exo+)): 40%
- rate of incorporation on dx (Klenow fragment (exo+); template N = X, 37° C.): 21%
- inhibition of incorporation of [α-32P] TTP into X by dYTP (Klenow fragment [5]; dYTP added at almost equivalent level of [α-32P] TTP, 30 minutes): 50%
- inhibition of incorporation of [α-32P] TTP into the complementary strand of A (Klenow fragment [5]; template 1, dYTP 0-1000 μM): did not inhibit
- inhibition of incorporation of [α-32P] CTP into the complementary strand of G (Klenow fragment [5]; template 2, dYTP 0-1000 μM): did not inhibit

SMILES: Nc1cc[nH]c(=O)n1 [C, cytosine]
- incorporation in transcription opposite G (FIG. 10) (T7 RNA polymerase [1]): only C was incorporated
- incorporation to the complementary strand X (primer extension, FIG. 6) (Klenow fragment [3]; [6]): incorporated
- incorporated into complementary strand of X (Klenow fragment [4]): 9.5%

SMILES: O=c1ccn([C@@H]2O[C@H](CO)[C@@H](OP(=O)(O)O)[C@H]2O)c(=O)[nH]1 [Up]
- Template 1 (N = A) Measured Value (T7 RNA polymerase [2]): 0.98
- Template 3 (N = X) Measured Value (T7 RNA polymerase [2]): 0.08
